Data published in PubChem BioAssay AID588415 (Sanford-Burnham Center for Chemical Genomics, 2011).
Activity calls are given as the source filed them.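 How the source made its calls: active means IC50 at or below 20 µM; inactive means the rest.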

Target: glucose-6-phosphate dehydrogenase-6-phosphogluconolactonase (PfGluPho), Plasmodium falciparum 3D7
Assay: PfG6PD enzyme inhibitors, SAR follow-up, biochemical, fluorescence intensity (AID 588415)
Details: recombinant PfG6PD, resazurin-diaphorase NADPH fluorescence

**Q.** `COc1ccc(C(=O)Nc2nnc(S(=O)(=O)N3CCCCCC3)s2)cc1` was tested. Which IC50 did it give?
**A.** The IC50 was “inactive”.

**Q.** `CCN(CC)CCNC(=O)c1ccc2c(c1)N(Cc1ccc(C)cc1)C(=O)c1ccccc1S2` was tested. Which IC50 did it give?
**A.** The IC50 was “inactive”.

**Q.** With `CCN(CCNC(=O)c1ccc2c(c1)NC(=O)c1ccccc1S2)c1ccccc1` as the compound, how does the IC50 read?
**A.** Its IC50 is > 80 µM (inactive).

**Q.** Which IC50 does the source give for `CCN(CCNC(=O)c1ccc2c(c1)N(Cc1cc(C)ccc1C)C(=O)c1ccccc1S2)c1ccccc1` here?
**A.** The IC50 was > 80 µM (inactive).

**Q.** For `O=C(Nc1nnc(S(=O)(=O)N2CCCCCC2)s1)c1cccc(Cl)c1`, which IC50 is on record?
**A.** Its IC50 is 5.6 µM.

**Q.** `Cc1ccccc1C(=O)Nc1nnc(S(=O)(=O)N2CCCc3ccccc32)s1` was tested. Which IC50 did it give?
**A.** Its IC50 is > 80 µM (inactive).

**Q.** Which IC50 does the source give for `CCN1CCCC1CNC(=O)c1ccc2c(c1)NC(=O)c1ccccc1S2` (centres undefined) here?
**A.** Its IC50 is 12.2 µM.

**Q.** With `CCN(CC)CCNC(=O)c1ccc2c(c1)NC(=O)c1ccccc1S2` as the compound, how does the IC50 read?
**A.** Its IC50 is “inactive”.

**Q.** Which IC50 does the source give for `O=C(Nc1nnc(S(=O)(=O)N2CCCCC2)s1)c1cccc(F)c1` here?
**A.** Its IC50 is > 80 µM (inactive).

**Q.** For `Cc1cccc(C(=O)Nc2nnc(S(=O)(=O)N3CCC(C)CC3)s2)c1`, which IC50 is on record?
**A.** The IC50 was 13 µM.

**Q.** How did the IC50 turn out when `CCN(CC)CCNC(=O)c1ccc2c(c1)NC(=O)/C(=C/c1ccccc1)S2` was run?
**A.** The IC50 was 8.81 µM.

**Q.** `Cc1cccc(C(=O)Nc2nnc(S(=O)(=O)N3c4ccccc4CC3C)s2)c1` (centres undefined) was tested. Which IC50 did it give?
**A.** Its IC50 is > 80 µM (inactive).

**Q.** How did the IC50 turn out when `O=C(Nc1nnc(S(=O)(=O)N2CCCCCC2)s1)C1CCCCC1` was run?
**A.** The IC50 was > 80 µM (inactive).

**Q.** With `CCN1CCCC1CNC(=O)c1ccc2c(c1)N(Cc1ccc(C(F)(F)F)cc1)C(=O)c1ccccc1S2` (centres undefined) as the compound, how does the IC50 read?
**A.** The IC50 was > 80 µM (inactive).

**Q.** Which IC50 does the source give for `CCN(CC)CCNC(=O)c1ccc2c(c1)NC(=O)/C(=C\c1ccccc1F)S2` here?
**A.** Its IC50 is 7.36 µM.

**Q.** Which IC50 does the source give for `O=C(Nc1nnc(S(=O)(=O)N2CCCCCC2)s1)c1ccccc1` here?
**A.** The IC50 was “inactive”.

**Q.** With `Cc1cccc(C(=O)Nc2nnc(S(=O)(=O)N3CCCc4ccccc43)s2)c1` as the compound, how does the IC50 read?
**A.** Its IC50 is > 80 µM (inactive).

**Q.** `CCOc1ccc(C(=O)Nc2nnc(S(=O)(=O)N3CCCCCC3)s2)cc1` was tested. Which IC50 did it give?
**A.** The IC50 was > 80 µM (inactive).

**Q.** How did the IC50 turn out when `Cc1ccccc1C(=O)Nc1nnc(S(=O)(=O)N2CCCCCC2)s1` was run?
**A.** The IC50 was > 80 µM (inactive).

**Q.** Which IC50 does the source give for `CCN1CCCC1CNC(=O)c1ccc2c(c1)NC(=O)/C(=C\c1ccccc1F)S2` (centres undefined) here?
**A.** Its IC50 is 1.75 µM.

**Q.** For `CCN(CC)CCNC(=O)c1ccc2c(c1)N(Cc1cc(C)ccc1C)C(=O)c1ccccc1S2`, which IC50 is on record?
**A.** The IC50 was > 80 µM (inactive).

**Q.** `O=C(Nc1nnc(S(=O)(=O)N2CCCCCC2)s1)c1ccccc1F` was tested. Which IC50 did it give?
**A.** Its IC50 is > 80 µM (inactive).

**Q.** `Cc1cccc(C(=O)Nc2nnc(S(=O)(=O)N3CCOCC3)s2)c1` was tested. Which IC50 did it give?
**A.** The IC50 was 4.17 µM.

**Q.** Which IC50 does the source give for `CN(CCNC(=O)c1ccc2c(c1)NC(=O)c1ccccc1S2)C1CCCCC1` here?
**A.** Its IC50 is “inactive”.

**Q.** Which IC50 does the source give for `COc1cccc(/C=C2/Sc3ccc(C(=O)NCCN4CCCC4)cc3NC2=O)c1` here?
**A.** The IC50 was “inactive”.

**Q.** With `CCN1CCCC1CNC(=O)c1ccc2c(c1)NC(=O)/C(=C\c1ccccc1Cl)S2` (centres undefined) as the compound, how does the IC50 read?
**A.** The IC50 was 2.56 µM.

**Q.** How did the IC50 turn out when `Cc1ccc(C(=O)Nc2nnc(S(=O)(=O)N3CCCc4ccccc43)s2)cc1` was run?
**A.** Its IC50 is > 80 µM (inactive).

**Q.** With `Cc1ccc(C(=O)Nc2nnc(S(=O)(=O)N3c4ccccc4CC3C)s2)cc1` (centres undefined) as the compound, how does the IC50 read?
**A.** The IC50 was > 80 µM (inactive).

**Q.** How did the IC50 turn out when `O=C(Nc1nnc(S(=O)(=O)N2CCOCC2)s1)c1cccc(F)c1` was run?
**A.** The IC50 was “inactive”.

**Q.** Which IC50 does the source give for `Cc1ccc(CN2C(=O)c3ccccc3Sc3ccc(C(=O)NCCN(C)C)cc32)cc1` here?
**A.** Its IC50 is “inactive”.

**Q.** For `O=C1Nc2cc(C(=O)NCCN3CCCC3)ccc2S/C1=C/c1ccccc1Cl`, which IC50 is on record?
**A.** Its IC50 is 11.1 µM.

**Q.** With `CCN(CC)CCNC(=O)c1ccc2c(c1)NC(=O)/C(=C\c1ccc(OC)c(OC)c1)S2` as the compound, how does the IC50 read?
**A.** The IC50 was “inactive”.

**Q.** Which IC50 does the source give for `CCN(CC)CCNC(=O)c1ccc2c(c1)NC(=O)/C(=C\c1ccccc1Cl)S2` here?
**A.** Its IC50 is 16.2 µM.

**Q.** How did the IC50 turn out when `CCN(CCNC(=O)c1ccc2c(c1)N(CC)C(=O)c1ccccc1S2)c1ccccc1` was run?
**A.** Its IC50 is > 80 µM (inactive).

**Q.** How did the IC50 turn out when `O=C(Nc1nnc(S(=O)(=O)N2CCCc3ccccc32)s1)c1cccc(F)c1` was run?
**A.** Its IC50 is > 80 µM (inactive).

**Q.** Which IC50 does the source give for `CCN1CCCC1CNC(=O)c1ccc2c(c1)N(Cc1cccc(F)c1)C(=O)c1ccccc1S2` (centres undefined) here?
**A.** The IC50 was > 80 µM (inactive).

**Q.** `CN(C)CCNC(=O)c1ccc2c(c1)NC(=O)/C(=C\c1cccc(Cl)c1)S2` was tested. Which IC50 did it give?
**A.** Its IC50 is “inactive”.

**Q.** `CCCN(CCC)CCNC(=O)c1ccc2c(c1)NC(=O)/C(=C/c1ccccc1)S2` was tested. Which IC50 did it give?
**A.** The IC50 was > 80 µM (inactive).

**Q.** Which IC50 does the source give for `COc1ccc(/C=C2/Sc3ccc(C(=O)NCCN4CCCCCC4)cc3NC2=O)cc1` here?
**A.** Its IC50 is > 80 µM (inactive).

**Q.** With `CCN1CCCC1CNC(=O)c1ccc2c(c1)NC(=O)/C(=C/c1ccccc1F)S2` (centres undefined) as the compound, how does the IC50 read?
**A.** Its IC50 is 1.73 µM.

**Q.** `CCC(C)N(CCNC(=O)c1ccc2c(c1)NC(=O)c1ccccc1S2)C1CCCCC1` (centres undefined) was tested. Which IC50 did it give?
**A.** The IC50 was 6.36 µM.

**Q.** How did the IC50 turn out when `CCN1CCCC1CNC(=O)c1ccc2c(c1)N(Cc1ccccc1F)C(=O)c1ccccc1S2` (centres undefined) was run?
**A.** Its IC50 is > 80 µM (inactive).

**Q.** `O=C(Nc1nnc(S(=O)(=O)N2CCCCCC2)s1)c1ccc(F)cc1` was tested. Which IC50 did it give?
**A.** The IC50 was “inactive”.

**Q.** With `Cc1cccc(N2CCN(CCNC(=O)c3ccc4c(c3)NC(=O)c3ccccc3S4)CC2)c1C` as the compound, how does the IC50 read?
**A.** Its IC50 is > 80 µM (inactive).

**Q.** How did the IC50 turn out when `CC1Cc2ccccc2N1S(=O)(=O)c1nnc(NC(=O)c2cccc(Br)c2)s1` (centres undefined) was run?
**A.** The IC50 was > 80 µM (inactive).

**Q.** For `O=C1Nc2cc(C(=O)NCCN3CCCCCC3)ccc2S/C1=C/c1ccccc1F`, which IC50 is on record?
**A.** The IC50 was “inactive”.

**Q.** `CCCN(CCC)CCNC(=O)c1ccc2c(c1)NC(=O)/C(=C\c1ccc(C)cc1)S2` was tested. Which IC50 did it give?
**A.** The IC50 was > 80 µM (inactive).

**Q.** Which IC50 does the source give for `O=C(Nc1nnc(S(=O)(=O)N2CCCCCC2)s1)c1cccc(Br)c1` here?
**A.** The IC50 was 7.35 µM.

**Q.** Which IC50 does the source give for `CCN(CC)CCNC(=O)c1ccc2c(c1)N(Cc1ccccc1Cl)C(=O)c1ccccc1S2` here?
**A.** Its IC50 is > 80 µM (inactive).

**Q.** Which IC50 does the source give for `O=C(Nc1nnc(S(=O)(=O)N2CCCCCC2)s1)c1ccco1` here?
**A.** The IC50 was > 80 µM (inactive).

**Q.** For `CC1Cc2ccccc2N1S(=O)(=O)c1nnc(NC(=O)c2cccc(F)c2)s1` (centres undefined), which IC50 is on record?
**A.** Its IC50 is > 80 µM (inactive).

**Q.** With `COc1cccc(/C=C2/Sc3ccc(C(=O)NCCN4CCCCCC4)cc3NC2=O)c1` as the compound, how does the IC50 read?
**A.** Its IC50 is > 80 µM (inactive).

**Q.** With `CCN1CCCC1CNC(=O)c1ccc2c(c1)N(Cc1ccccc1Cl)C(=O)c1ccccc1S2` (centres undefined) as the compound, how does the IC50 read?
**A.** Its IC50 is > 80 µM (inactive).

**Q.** `O=C1Nc2cc(C(=O)NCCN3CCCCCC3)ccc2S/C1=C/c1ccccc1Cl` was tested. Which IC50 did it give?
**A.** The IC50 was “inactive”.

**Q.** For `COc1ccc(C(=O)Nc2nnc(S(=O)(=O)N3CCCCCC3)s2)cc1OC`, which IC50 is on record?
**A.** The IC50 was > 80 µM (inactive).

**Q.** For `Cc1cccc(C(=O)Nc2nnc(S(=O)(=O)N3CCCCCC3)s2)c1`, which IC50 is on record?
**A.** The IC50 was 8.71 µM.

**Q.** How did the IC50 turn out when `Cc1cccc(/C=C2/Sc3ccc(C(=O)NCCN4CCCC4)cc3NC2=O)c1` was run?
**A.** The IC50 was 11.8 µM.

**Q.** Which IC50 does the source give for `CCN(CC)CCNC(=O)c1ccc2c(c1)NC(=O)/C(=C\c1ccc(OC)cc1)S2` here?
**A.** Its IC50 is “inactive”.

**Q.** For `COc1ccc(/C=C2/Sc3ccc(C(=O)NCCN4CCCC4)cc3NC2=O)cc1`, which IC50 is on record?
**A.** Its IC50 is “inactive”.

**Q.** How did the IC50 turn out when `COc1ccc(/C=C2/Sc3ccc(C(=O)NCCN(C)C)cc3NC2=O)cc1` was run?
**A.** Its IC50 is > 80 µM (inactive).

**Q.** For `COc1cccc(C(=O)Nc2nnc(S(=O)(=O)N3CCCCCC3)s2)c1`, which IC50 is on record?
**A.** The IC50 was 4.89 µM.

**Q.** With `Cc1ccc(C(=O)Nc2nnc(S(=O)(=O)N3CCCCCC3)s2)cc1` as the compound, how does the IC50 read?
**A.** Its IC50 is > 80 µM (inactive).

**Q.** How did the IC50 turn out when `O=C(Nc1nnc(S(=O)(=O)N2CCCCCC2)s1)c1cccc(F)c1` was run?
**A.** Its IC50 is > 80 µM (inactive).

**Q.** `COc1ccccc1C(=O)Nc1nnc(S(=O)(=O)N2CCCCCC2)s1` was tested. Which IC50 did it give?
**A.** The IC50 was > 80 µM (inactive).
